Our source for the inhibition values is ChEMBL document CHEMBL4418269, “Novel Quinoline-Hepcidine Antagonists” (2012).

The assay deals with T1, Hepcidin (Homo sapiens) (UniProt P81172).
T1 sequence (whole entry): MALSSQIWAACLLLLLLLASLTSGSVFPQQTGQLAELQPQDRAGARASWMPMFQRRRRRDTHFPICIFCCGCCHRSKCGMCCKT
Description: Inhibition of human hepcidin-stimulated recombinant C-terminal Halo-tagged human FPN internalization in MDCK cells at 10 uM incubated for 15 to 20 mins by Halo-tagged TMR based fluorescence assay relative to control. The assay is classed as cell-based.
What is called inhibition is the drop in the measured response relative to a control, in per cent. Turning to `Oc1c(C(c2ccccn2)N2CCOCC2)ccc2cccnc12` (stereo unspecified), the inhibition is more than 50%.
As to `O=C(Oc1c(CN2CCOCC2)cc(Cl)c2cccnc12)c1ccccc1`, the inhibition is less than 50%.
With `Oc1c(C(Nc2ccccn2)c2cccnc2)cc(Cl)c2cccnc12` (stereo unspecified) the figure was less than 50%.
With `Oc1c(C(c2ccc(Cl)cc2)N2CCOCC2)cc(Cl)c2cccnc12` (stereo unspecified) the figure was less than 50%; with `COc1cc(C(=O)Oc2c(CN3CCOCC3)cc(Cl)c3cccnc23)cc(OC)c1OC`, less than 50%; with `O=C(Oc1c(CN2CCOCC2)cc(Cl)c2cccnc12)c1ccco1`, less than 50%.
